These results are taken from patent US20090270350A1, “Pyridinone Pyrazole Urea and Pyrimidinone Pyrazole Urea Derivatives” (PFIZER INC., priority 2006, published 2009).

In this test the target is p38α (Homo sapiens, UniProt Q16539). Nature of the test: p38α/MK2 cascade assay. The format is biochemical. The conditions noted are these: Table 1; inhibitors preincubated with p38α for 40 minutes; phosphorylation of Hsp27 peptide by MK-2, Caliper LabChip 3000; read-out: p38a/MK2 Cascade 40 min Pre-Incuabtion (% Inhibition): IC50. The method, then: The ability of compounds to inhibit activated p38α was determined in a p38α/MK-2 cascade assay format. The kinase activity of p38α is determined by its ability to phosphorylate/activate nonactive MK2 (54-400). Activation of MK-2 by p38α is measured by following the phosphorylation of a MK-2 specific peptide, Hsp27 peptide (FITC-KKKALSRQLSVAA). The phosphorylation of the Hsp27 peptide was quantified using the Caliper LabChip 3000. The kinase reactions were carried out in 20 mM HEPES pH 7.5, 10 mM MgCl2, 0.0005% Tween-20, 0.01% BSA, 1 mM DTT, and 2% DMSO. The inhibitors were varied between 1000-0.05 nM, while the Hsp27 peptide substrate, MgATP, and nonactive MK-2 (54-400) were held constant at 0.5 µM, 5 µM, and 1 nM, respectively. Inhibitors were preincubated with p38α for 40 minutes prior to initiating the reaction with peptide, MgATP, and MK-2. The kinase reactions were quenched after 60 minutes by the addition of stop buffer (180 mM HEPES, 30 mM EDTA, and 0.2% Coating Reagent-3).
Chain of p38α (Q16539 whole entry): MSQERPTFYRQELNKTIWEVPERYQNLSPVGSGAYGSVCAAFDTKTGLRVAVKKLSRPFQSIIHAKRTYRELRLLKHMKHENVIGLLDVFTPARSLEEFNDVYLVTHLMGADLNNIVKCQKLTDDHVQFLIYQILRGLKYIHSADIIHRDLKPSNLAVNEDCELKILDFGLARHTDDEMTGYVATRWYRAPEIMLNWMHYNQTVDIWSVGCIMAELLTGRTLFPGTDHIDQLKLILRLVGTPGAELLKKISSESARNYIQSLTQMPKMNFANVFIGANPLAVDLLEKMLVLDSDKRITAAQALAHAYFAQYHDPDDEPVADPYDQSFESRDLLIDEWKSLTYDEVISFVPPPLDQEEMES
The above protocol assay was used to determine the IC50 values for some of the compounds in the above Examples.
IC50 values were determined for the compounds listed in Table 2, using the same p38α/MK2 cascade assay used to determine the IC50 values for the compounds in Table 1. The compounds of Table 2 were prepared using methods similar to those listed in the Examples for compounds of Table 1.
`COc1cccc(Cn2c(C)cc(OCc3ccc(F)cc3CNC(=O)Nc3cc(C(C)(C)C)nn3-c3cccc(OCCOC4CCCCO4)c3)cc2=O)c1` (stereo not drawn) [Example 34, 1-(3-tert-butyl-1-{3-[2-(tetrahydro-2H-pyran-2-yloxy)ethoxy]phenyl}-1H-pyrazol-5-yl)-3-[5-fluoro-2-({[1-(3-methoxybenzyl)-6-methyl-2-oxo-1,2-dihydropyridin-4-yl]oxy}methyl)benzyl]urea]: the IC50 amounted to 266 nM.
Next, `COc1cccc(Cn2c(C)cc(OCc3ccc(F)cc3CNC(=O)Nc3cc(C(C)(C)C)nn3-c3cccc(OC)c3)cc2=O)c1` [Example 35, 1-[3-tert-butyl-1-(3-methoxyphenyl)-1H-pyrazol-5-yl]-3-[5-fluoro-2-({[1-(3-methoxybenzyl)-6-methyl-2-oxo-1,2-dihydropyridin-4-yl]oxy}methyl)benzyl]urea]: 42.2 nM.
As for `COc1cccc(Cn2c(C)cc(OCc3ccccc3CNC(=O)Nc3cc(C(C)(C)C)nn3-c3cccc(OCCOC4CCCCO4)c3)cc2=O)c1` (stereo not drawn) [Example 36, 1-(3-tert-butyl-1-{3-[2-(tetrahydro-2H-pyran-2-yloxy)ethoxy]phenyl}-1H-pyrazol-5-yl)-3-[2-({[1-(3-methoxybenzyl)-6-methyl-2-oxo-1,2-dihydropyridin-4-yl]oxy}methyl)benzyl]urea], the IC50 stood at 142 nM.
For the molecule `COc1cccc(Cn2c(C)cc(OCc3ccc(F)cc3CNC(=O)Nc3cc(C(C)(C)C)nn3-c3cccc(OCCO)c3)cc2=O)c1` [Example 37, 1-{3-tert-butyl-1-[3-(2-hydroxyethoxy)phenyl]-1H-pyrazol-5-yl}-3-[5-fluoro-2-({[1-(3-methoxybenzyl)-6-methyl-2-oxo-1,2-dihydropyridin-4-yl]oxy}methyl)benzyl]urea], the IC50 was 29.3 nM.
Under `COc1cccc(Cn2c(C)cc(OCc3ccccc3CNC(=O)Nc3cc(C(C)(C)C)nn3-c3cccc(OCCO)c3)cc2=O)c1` [Example 38, 1-{3-tert-butyl-1-[3-(2-hydroxyethoxy)phenyl]-1H-pyrazol-5-yl}-3-[2-({[1-(3-methoxybenzyl)-6-methyl-2-oxo-1,2-dihydropyridin-4-yl]oxy}methyl)benzyl]urea] stands 31.1 nM; under `COc1cccc(Cn2c(C)cc(OCc3ccc(F)cc3CNC(=O)Nc3cc(C(C)(C)C)nn3-c3cccc(OCCO)c3)c(Cl)c2=O)c1` [Example 39, 1-{3-tert-butyl-1-[3-(2-hydroxyethoxy)phenyl]-1-pyrazol-5-yl}-3-[2-({[3-chloro-1-(3-methoxybenzyl)-6-methyl-2-oxo-1,2-dihydropyridin-4-yl]oxy}methyl)-5-fluorobenzyl]urea], 7.3 nM; under `COc1cccc(Cn2c(C)cc(OCc3ccc(F)cc3CNC(=O)Nc3cc(C(C)(C)C)nn3-c3cccc(OCCOC4CCCCO4)c3)c(Cl)c2=O)c1` (stereo not drawn) [Example 41, 1-(3-tert-butyl-1-{3-[2-(tetrahydro-2H-pyran-2-yloxy)ethoxy]phenyl}-1H-pyrazol-5-yl)-3-[2-({[3-chloro-1-(3-methoxybenzyl)-6-methyl-2-oxo-1,2-dihydropyridin-4-yl]oxy}methyl)-5-fluorobenzyl]urea], 21.6 nM.
Next, `COc1cccc(Cn2c(C)cc(OCc3ccc(F)cc3CNC(=O)Nc3cc(C(C)(C)C)nn3-c3ccc(O[Si](C)(C)C(C)(C)C)c(Cl)c3)c(Cl)c2=O)c1` [Example 42, 1-[3-tert-butyl-1-(4-{[tert-butyl(dimethyl)silyl]oxy}-3-chlorophenyl)-1H-pyrazol-5-yl]-3-[2-({[3-chloro-1-(3-methoxybenzyl)-6-methyl-2-oxo-1,2-dihydropyridin-4-yl]oxy}methyl)-5-fluorobenzyl]urea]: 116 nM.
Under `COc1cccc(Cn2c(C)cc(OCc3ccc(F)cc3CNC(=O)Nc3cc(C(C)(C)C)nn3-c3ccc(Cl)c(O[Si](C)(C)C(C)(C)C)c3)c(Cl)c2=O)c1` [Example 43, 1-[3-tert-butyl-1-(3-{[tert-butyl(dimethyl)silyl]oxy}-4-chlorophenyl)-1H-pyrazol-5-yl]-3-[2-({[3-chloro-1-(3-methoxybenzyl)-6-methyl-2-oxo-1,2-dihydropyridin-4-yl]oxy}methyl)-5-fluorobenzyl]urea] stands 43.1 nM.
Take `COc1cccc(Cn2c(C)cc(OCc3ccccc3CNC(=O)Nc3cc(C(C)(C)C)nn3-c3cccc(OC)c3)c(Cl)c2=O)c1` [Example 44, 1-[3-tert-butyl-1-(3-methoxyphenyl)-1H-pyrazol-5-yl]-3-[2-({[3-chloro-1-(3-methoxybenzyl)-6-methyl-2-oxo-1,2-dihydropyridin-4-yl]oxy}methyl)benzyl]urea]: the IC50 was 5.8 nM.
Next, `COc1cccc(Cn2c(C)cc(OCc3ccc(F)cc3CNC(=O)Nc3cc(C(C)(C)C)nn3-c3ccc(Cl)c(O)c3)c(Cl)c2=O)c1` [Example 45, 1-[3-tert-butyl-(4-chloro-3-hydroxyphenyl)-1H-pyrazol-5-yl]-3-[2-({[3-chloro-1-(3-methoxybenzyl)-6-methyl-2-oxo-1,2-dihydropyridin-4-yl]oxy}methyl)-5-fluorobenzyl]urea]: 6.2 nM.
Next, `COc1cccc(Cn2c(C)cc(OCc3ccc(F)cc3CNC(=O)Nc3cc(C(C)(C)C)nn3-c3ccc(O)c(Cl)c3)c(Cl)c2=O)c1` [Example 46, 1-[3-tert-butyl-1-(3-chloro-4-hydroxyphenyl)-1H-pyrazol-5-yl]-3-[2-({[3-chloro-1-(3-methoxybenzyl)-6-methyl-2-oxo-1,2-dihydropyridin-4-yl]oxy}methyl)-5-fluorobenzyl]urea]: 4 nM.
Turning to `COc1cccc(Cn2c(C)cc(OCc3ccccc3CNC(=O)Nc3cc(C(C)(C)C)nn3-c3ccc(Cl)c(O)c3)c(C)c2=O)c1` [Example 47, 1-[3-tert-butyl-1-(4-chloro-3-hydroxyphenyl)-1H-pyrazol-5-yl]-3-[2-({[1-(3-methoxybenzyl)-3,6-dimethyl-2-oxo-1,2-dihydropyridin-4-yl]oxy}methyl)benzyl]urea], the IC50 came to 12.2 nM.
Next, `COc1cccc(Cn2c(C)cc(OCc3ccccc3CNC(=O)Nc3cc(C(C)(C)C)nn3-c3cccc(OCCO)c3)c(C)c2=O)c1` [Example 48, 1-{3-tert-butyl-1-[3-(2-hydroxyethoxy)phenyl]-1H-pyrazol-5-yl}-3-[2-({[1-(3-methoxybenzyl)-3,6-dimethyl-2-oxo-1,2-dihydropyridin-4-yl]oxy}methyl)benzyl]urea]: 6.4 nM; `COc1cccc(Cn2c(C)cc(OCc3ccc(F)cc3CNC(=O)Nc3cc(C(C)(C)C)nn3-c3cccc(O)c3)c(Cl)c2=O)c1` [Example 50, 1-[3-tert-butyl-1-(3-hydroxyphenyl)-1H-pyrazol-5-yl]-3-[2-({[3-chloro-1-(3-methoxybenzyl)-6-methyl-2-oxo-1,2-dihydropyridin-4-yl]oxy}methyl)-5-fluorobenzyl]urea]: 6.5 nM; `COc1cccc(Cn2c(C)cc(OCc3ccccc3CNC(=O)Nc3cc(C(C)(C)C)nn3-c3ccc(O)cc3)c(Cl)c2=O)c1` [Example 51, 1-[3-tert-butyl-1-(4-hydroxyphenyl)-1H-pyrazol-5-yl]-3-[2-({[3-chloro-1-(3-methoxybenzyl)-6-methyl-2-oxo-1,2-dihydropyridin-4-yl]oxy}methyl)benzyl]urea]: 5.8 nM.
Next, `COc1cccc(Cn2c(C)cc(OCc3ccccc3CNC(=O)Nc3cc(C(C)(C)C)nn3-c3cccc(O)c3)c(Cl)c2=O)c1` [Example 52, 1-[3-tert-butyl-1-(3-hydroxyphenyl)-1H-pyrazol-5-yl]-3-[2-({[3-chloro-1-(3-methoxybenzyl)-6-methyl-2-oxo-1,2-dihydropyridin-4-yl]oxy}methyl)benzyl]urea]: 6.2 nM.
As to `COc1ccc(Cn2c(C)cc(OCc3ccccc3CNC(=O)Nc3cc(C(C)(C)C)nn3-c3ccc(O)cc3)cc2=O)cc1` [Example 54, 1-[3-tert-butyl-1-(4-hydroxyphenyl)-1H-pyrazol-5-yl]-3-[2-({[1-(4-methoxybenzyl)-6-methyl-2-oxo-1,2-dihydropyridin-4-yl]oxy}methyl)benzyl]urea], the IC50 is 117 nM.
Consider `COc1ccc(Cn2c(C)cc(OCc3ccccc3CNC(=O)Nc3cc(C(C)(C)C)nn3-c3cccc(O)c3)cc2=O)cc1` [Example 55, 1-[3-tert-butyl-1-(3-hydroxyphenyl)-1H-pyrazol-5-yl]-3-[2-({[1-(4-methoxybenzyl)-6-methyl-2-oxo-1,2-dihydropyridin-4-yl]oxy}methyl)benzyl]urea], for which the IC50 was 24.3 nM.
Under `COc1ccc(Cn2c(C)cc(OCc3ccccc3CNC(=O)Nc3cc(C(C)(C)C)nn3-c3ccc(O)c(Cl)c3)cc2=O)cc1` [Example 56, 1-[3-tert-butyl-1-(3-chloro-4-hydroxyphenyl)-1H-pyrazol-5-yl]-3-[2-({[1-(4-methoxybenzyl)-6-methyl-2-oxo-1,2-dihydropyridin-4-yl]oxy}methyl)benzyl]urea] stands 39.2 nM; under `COc1ccc(Cn2c(C)cc(OCc3ccccc3CNC(=O)Nc3cc(C(C)(C)C)nn3-c3cccc(OCCO)c3)c(Cl)c2=O)cc1` [Example 57, 1-{3-tert-butyl-1-[3-(2-hydroxyethoxy)phenyl]-1H-pyrazol-5-yl}-3-[2-({[3-chloro-1-(4-methoxybenzyl)-6-methyl-2-oxo-1,2-dihydropyridin-4-yl]oxy}methyl)benzyl]urea], 9.3 nM.
